# Assay results reported in ChEMBL document CHEMBL5150039 (Bioorg Med Chem, 2022).
# Assays:
# [1] = target: T1, Solute carrier family 22 member 12 (Homo sapiens, UniProt Q96S37); settings: HEK293, human, 8 min, read-out: INH
# T1 sequence (Q96S37 whole entry): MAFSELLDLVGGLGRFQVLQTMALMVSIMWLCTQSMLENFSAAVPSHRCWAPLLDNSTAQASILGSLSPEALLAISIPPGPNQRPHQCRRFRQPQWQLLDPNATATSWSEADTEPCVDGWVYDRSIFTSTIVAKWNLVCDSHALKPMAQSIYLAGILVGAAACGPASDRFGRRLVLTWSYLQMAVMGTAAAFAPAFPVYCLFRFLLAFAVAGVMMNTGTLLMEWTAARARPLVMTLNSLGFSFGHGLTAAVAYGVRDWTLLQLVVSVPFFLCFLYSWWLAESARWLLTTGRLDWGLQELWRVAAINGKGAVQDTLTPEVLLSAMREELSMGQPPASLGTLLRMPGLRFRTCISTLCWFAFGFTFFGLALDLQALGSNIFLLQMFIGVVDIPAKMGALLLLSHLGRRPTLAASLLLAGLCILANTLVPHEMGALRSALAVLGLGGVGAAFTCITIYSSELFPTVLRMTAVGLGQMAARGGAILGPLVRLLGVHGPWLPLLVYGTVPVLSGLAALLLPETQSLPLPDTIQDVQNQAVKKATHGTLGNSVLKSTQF
# Description: Inhibition of URAT1 in human HEK293 cells assessed as inhibition of uric acid uptake at 1000 nM incubated for 8 mins by Microbeta scintillation counting analysis
# [2] = target: T1, Solute carrier family 22 member 12; settings: HEK293, human, 8 min, read-out: INH; remark: listed apart in the source
# Description: Inhibition of URAT1 in human HEK293 cells assessed as inhibition of uric acid uptake at 100 nM incubated for 8 mins by Microbeta scintillation counting analysis
# [3] = target: T1, Solute carrier family 22 member 12; settings: HEK293, human, 8 min, read-out: INH; remark: listed apart in the source
# [4] = target: T2, Bile acid receptor (Homo sapiens, UniProt Q96RI1); test: Agonist activity at FXR (unknown origin) expressed in human HepG2 cells co-transfected with human RXR incubated for 24 hrs by cell-based luciferase transactivation assay
# T2 sequence (Q96RI1 whole entry): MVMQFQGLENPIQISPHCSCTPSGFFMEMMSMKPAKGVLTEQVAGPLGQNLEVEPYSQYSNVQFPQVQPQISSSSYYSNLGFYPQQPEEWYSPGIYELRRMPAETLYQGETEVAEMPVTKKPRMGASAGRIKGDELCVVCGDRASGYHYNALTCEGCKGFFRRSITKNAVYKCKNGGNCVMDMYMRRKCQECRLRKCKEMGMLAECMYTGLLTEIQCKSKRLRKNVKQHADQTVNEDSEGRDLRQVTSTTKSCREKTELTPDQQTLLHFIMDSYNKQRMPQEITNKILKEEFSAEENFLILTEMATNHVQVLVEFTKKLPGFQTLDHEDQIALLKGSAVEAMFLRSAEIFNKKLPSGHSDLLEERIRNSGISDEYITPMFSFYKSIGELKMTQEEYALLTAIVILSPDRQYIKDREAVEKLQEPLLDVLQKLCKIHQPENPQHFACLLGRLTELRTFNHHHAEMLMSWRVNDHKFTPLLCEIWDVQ
Structure (SMILES),inhibition at 1 µM [1] [%],inhibition at 0.1 µM [2] [%],inhibition at 0.3 µM [3] [%],EC50 [4] [µM]
CCc1oc2ccccc2c1C(=O)c1cc(Br)c(OCCCC(=O)O)c(Br)c1,45,6,23,
CCc1oc2ccccc2c1C(=O)c1cc(Br)c(OCc2cccc(OCC(=O)O)c2)c(Br)c1,31,3,18,17.8
CCc1oc2ccccc2c1C(=O)c1cc(Br)c(OCc2ccc(C(=O)O)cc2)c(Br)c1,23,1,8,10.3
CCc1oc2ccccc2c1C(=O)c1ccc(OCc2cccc(C(=O)O)c2)cc1,12,1,3,15.6
CCc1oc2ccccc2c1C(=O)c1cc(Br)c(O)c(Br)c1 [BENZBROMARONE],72,12,31,
